Measured values: a melting point compilation (Tetko et al.; mined from patent text by program, amines drawn as free bases though some values may be those of a salt)

melting point	Compound
97 °C	CNC(=O)[C@@H]1C[C@@H](Oc2ccccc2)CN1S(=O)(=O)c1ccc(Cl)c(COc2cccc3c(-n4ccnc4)cc(C)nc23)c1Cl
69.8 to 71.7 °C	CCOP(=O)(OCC)c1c(C)c2c(c(C)c1-c1c(OCc3ccccc3)ccc3ccccc13)CN(S(=O)(=O)c1ccc(C)cc1)C2
140 to 142 °C	O=C1c2ccccc2S(=O)(=O)N1Cn1nnn(-c2ccccc2)c1=S
139 to 142 °C	COc1cc(O)ccc1C=CC(=O)CC(C)=O
88 to 89 °C	CCOC(=O)c1ccc2occ(-c3ccc(SC)cc3)c2n1
108 to 110 °C	COc1ccc(C(=O)c2c[nH]c(Cc3ccccc3)n2)cc1
99 to 100 °C	CCN(CC)C(C)CN1CCc2c(c(=O)oc3c(OC)c(OC)ccc23)C1 (stereo not drawn)
131 to 132 °C	CCOC(=O)C1=Cc2ccc(O)cc2OCC1
240 to 241 °C	COc1cc(CN/C=C2\C(=O)NC(=O)c3ccc(-c4ccc(Cl)cc4)cc32)cc(O)c1OC
105 °C	CCc1cccc(NC(=O)NCC(=O)N(CC(=O)N(C)c2ccccc2)c2ccccc2)c1
231 to 234 °C	CSc1ccc(Nc2nc(=O)cc(N)n2-c2ccc(C)cc2)cc1
160 to 163 °C	NCc1ccc(-c2csc(N=C(N)N)n2)o1
150 °C	O=C(O)c1c(Cl)nc(Cl)nc1Cl
228 to 230 °C	Cc1ncc2cc(-c3c(Cl)cccc3Cl)c(NC(=O)c3ccco3)nc2n1
130 to 132 °C	COCCN1c2ccc([N+](=O)[O-])cc2CS1(=O)=O
92 to 95 °C	CNC(=O)CC(O)(c1ccccc1)c1ccc2nc(N)n(S(=O)(=O)C(C)C)c2c1 (stereo not drawn)
97 to 99 °C	N#CCN1CCCC(OC(c2ccccc2)c2ccccc2)C1 (stereo not drawn)
142 to 145 °C	CS(=O)(=O)c1cc(Cl)cc(O)c1O
79 to 81 °C	CC(C)(C)C1NCc2ccccc2C1c1ccccc1 (stereo not drawn)
157 to 160 °C	CCOC(=O)c1ccc(NC(=O)[C@H](CO)NS(=O)(=O)c2ccc(Cl)cc2)cc1
69 to 71 °C	CC(C)CC1CCN(CCc2ccccc2)C1=O (stereo not drawn)
125 to 126 °C	CCc1c(Oc2cc(C)cc(C)c2)n(C/C=C/CO)c(=O)[nH]c1=O
130 to 131 °C	COc1cccc(C=O)c1Oc1ccc([N+](=O)[O-])cc1
173 to 218 °C	COc1ccc(-c2ccncc2)cc1-c1ccc(Oc2ccccc2)cc1

melting point	Compound
104 to 111 °C	CCN1C(=O)C(C)(C)C(=O)N(C)c2cc(CN(CCn3cc(C)c4occc4c3=O)Cc3cccnc3COC)ccc21
73 to 74 °C	CC(C)[C@@H]1N(C(=O)OCc2ccccc2)CO[C@]1(O)C(F)(F)F
186 to 188 °C	O=C(O)[C@@H]1CC[C@H](n2nc(-c3c(-c4ccccc4)nn4ccccc34)ccc2=O)C(=O)C1 (relative stereo)
115 to 119 °C	CC(C)Oc1cc(-n2nc(Cl)n(C(F)F)c2=O)c(Cl)cc1Cl
146 °C	COc1cccc(OC)c1-c1ccc(C[C@H](NC(=O)c2c(Cl)cc(-c3cnccn3)cc2Cl)C(=O)O)cc1
127 to 131 °C	Cn1cc(Oc2ccccc2)c(=S)c(-c2cccc(C(F)(F)F)c2)c1
88 to 90 °C	CSc1nccc(C)c1NC(=O)CCCCCCCCSc1nc2ccccc2s1
354 °C	Brc1ccc(C23CC4(c5ccc(Br)cc5)CC(c5ccc(Br)cc5)(C2)CC(c2ccc(Br)cc2)(C3)C4)cc1
195 to 200 °C	CC(NC(=O)Cc1cc(F)cc(F)c1)C(=O)NC1C(=O)NCc2ccc(F)cc21 (stereo not drawn)
100 to 105 °C	CC(=O)OC[C@H]1O[C@@H](Cn2ccc(=S)[nH]c2=O)[C@@H](OC(C)=O)[C@@H]1OC(C)=O
210 °C	CC(=O)Nc1cc2c(cc1Oc1ccc(F)cc1F)CCC2=O
235 to 236 °C	Cn1c(C(F)(F)F)cc(=O)n(-c2ccc(Cl)c(C(=O)O)c2)c1=O
180 to 182 °C	CN(CC(=O)O)S(=O)(=O)c1ccc(Cl)cc1
158 °C	COc1ccccc1OCC(O)CN1CCCC(Cn2c(=O)[nH]c3ccccc32)C1 (stereo not drawn)
184 to 187 °C	COC[C@H]1O[C@H](ONC(=O)c2nc(-c3ccc(Cl)c(OC)c3F)cc(N)c2Cl)[C@H](OC)[C@@H](OC)[C@@H]1OC
158 to 160 °C	C=C(c1ccccc1N1CCCCC1)C(C(N)=O)c1ccc(C(=O)O)cc1 (stereo not drawn)
250 to 253 °C	O=C(O)c1cn(Cc2ccccc2)c2cc(N3CCNCC3)c(F)cc2c1=O
170 to 171 °C	CN(C(=O)Nc1ccc2ccccc2c1)c1cccc(-c2ccc(CCC(=O)O)cc2)c1
47 °C	OCC(O)(C(F)(F)F)C(F)(F)F
162 to 163 °C	CC1=NC=CC(=O)C1OCc1ccccc1 (stereo not drawn)
120 to 121 °C	COC1CCC2C3CCc4cc(O)c(C=O)cc4C3CCC12C (stereo not drawn)
131 to 132 °C	CCOC(=O)/C=C/c1cn(-c2ccc(C(F)(F)F)cn2)nc1C
128 to 130 °C	CC(C)C[C@H](O)[C@H](O)[C@H](CC1CCCCC1)NC(=O)OC(C)(C)C
92 to 95 °C	C[C@@H](n1nccn1)[C@](O)(Cn1cncn1)c1ccc(F)cc1F

melting point	Compound
205 to 212 °C	S=c1nc(-c2cc(Cl)cc(Cl)c2)[nH]n1Cc1ccccc1
158 to 160 °C	CN(C)c1ccc(CNc2ccc(C(F)(F)F)cc2[N+](=O)[O-])cc1
51.5 to 56.3 °C	CC(=N)NC/C(F)=C\CC[C@H](N)C(=O)O
204 to 207 °C	O=C(OCC1OC(c2ccc(Cl)c(Cc3cc4ccccc4s3)c2)C(OC(=O)c2ccccc2)C(OC(=O)c2ccccc2)C1F)c1ccccc1 (stereo not drawn)
70 to 74 °C	CCOC(=O)CCC(=O)Oc1cccc(-c2cn3c(n2)sc2ccccc23)c1
146 to 147 °C	CCc1c(-c2ccc(O)cc2)c2cc(COCCCN(C)C)c3cccc1n32
58 to 60 °C	CC(C)(C)OC(=O)N1C2CCC1CN(Cc1ccccc1)C2
110 to 118 °C	CC(C)(C)ONC(=O)c1ccc(Cc2ccc(N)cc2)cc1
183 to 184 °C	CC(=O)Nc1ccc(C23CC2C(=O)N(C)C3=O)cc1 (stereo not drawn)
101 to 108 °C	CC(C)N(C[C@H](O)[C@H](Cc1ccccc1)NC(=O)[C@H](CC(N)=O)NCc1ccccn1)NC(=O)OC(C)(C)C
149 to 150 °C	CCN1C(=O)C(C)(C)C(=O)N(C)c2cc(CN(CCn3c(=O)ccc4ccccc43)Cc3cccnc3C)ccc21
153 to 154 °C	CNc1cc(N2CCCNCC2)ccc1S(=O)(=O)c1cccc(F)c1
104 to 106 °C	CCOC(=O)C(=CNc1csnn1)C(=O)c1cc(F)c(F)cc1F
282 to 284 °C	Nc1c([N+](=O)[O-])sc2ccc(Br)cc12
131 to 132 °C	Clc1ccc(-c2cnccn2)c(Cl)c1
115 °C	CCc1nc(-n2ccnc2)c2ccccc2c1Cl
159 to 160 °C	O=C1C2CCCCN2C(=S)N1c1ccc(F)cc1F (stereo not drawn)
104 to 106 °C	Cc1ccccc1C1CC(=O)c2c(C)ccnc2C1 (stereo not drawn)
> 280 °C	O=c1[nH]c2cc(Br)cc(Br)c2c(=O)n1Cc1ccccc1
262 to 264 °C	O=C(O)c1cn(CCF)c2cc(Cl)c(F)cc2c1=O
102 to 104 °C	COc1cccc(CC(=O)O)c1OCCCc1cn(-c2ccccn2)nc1C(C)C
163 to 164 °C	COc1ccc(CSc2cccc(C(=O)Nc3ccc(C#N)cn3)c2)cc1
44 to 46 °C	CCC(CC)N1C(=O)CCc2c1cc(C)nc2Nc1c(C)cc(C)cc1C
176 to 177 °C	CNC(=O)c1ccccc1Nc1nc(Nc2ccc3c(c2)CN(CCOC)CCS3)ncc1Cl

melting point	Compound
229 to 231 °C	c1ccc2c(c1)Nc1cc(-c3csc(CN4CCSCC4)n3)ccc1S2
189 to 191 °C	Nc1nc(-c2cc(Cl)ccc2Cl)nc(N2CCOCC2)n1
42 to 46 °C	CCOC(=O)C(Oc1ccc(Oc2ccc(C#N)cc2)cc1)C(=O)OCC
134 to 135 °C	NNC(=O)c1ccccc1Nc1cccc(C(F)(F)F)c1
124 °C	CCCCOC(=O)C(c1ccc(O)c(C(C)(C)C)c1)c1ccc(O)c(C(C)(C)C)c1
48 to 52 °C	CCCC(=O)c1c(C)cc(C)cc1O
219 to 220 °C	COc1ccc(CC(C(N)=O)S(C)(=O)=O)cc1C(=O)NCc1ccc(C(F)(F)F)cc1 (stereo not drawn)
194 °C	COc1cc(-c2cc3ccccc3[nH]2)ccc1OS(C)(=O)=O
234 to 235 °C	O=C(Nc1cncc(Cl)n1)C1=C(O)c2ccccc2S(=O)(=O)N1
128 to 129 °C	CCCCCN(CCC12CC3CC(CC(C3)C1)C2)C(=O)NC(C)CCc1ccncc1 (stereo not drawn)
164 to 166 °C	CCn1cc(C(=O)O)c(=O)c2cc(F)c(-c3csc(CNC)n3)c(OC)c21
178 to 179 °C	Cn1cc(-c2cc3cccnc3[nH]2)c2cc(C(=O)NC(CO)CO)ccc21
131 °C	Nn1nc(-c2ccc(Cl)cc2)cc1OCCN1CCCC1
178 to 179 °C	Cc1cc(C)cc(S(=O)(=O)c2ccc(N)cc2)c1
192 to 194 °C	CCOC(=O)N1C(=O)NC(=O)C12C(=O)N(Cc1ccc(Cl)c(Cl)c1)c1ccccc12 (stereo not drawn)
172 °C	OCC1OC(n2cnc3c(NCc4cccc(I)c4)ncnc32)C(O)C1O (stereo not drawn)
72 to 75 °C	CCOC(=O)C1=C(C)NC(C)=C(C(=O)OCCN2CCN(C(c3ccccc3)c3ccccc3)CC2)C1c1cccc(Cl)c1 (stereo not drawn)
87 to 89 °C	CCOC(=O)OC1=C(c2c(C)cc(C)cc2C)C(=O)SC12CCN(OC)CC2
130 to 131 °C	O=C1O[C@H]2C[C@@H]1CC[C@@H]2I
176 to 177 °C	Nc1ccc(C(=O)O)cc1NCc1ccccc1Cl
224 to 226 °C	COc1ccc(C(=O)O)c2c1OCCO2

Compound	melting point
Cc1[nH]cc2c1-c1ccc(Cl)cc1C(c1ccccc1F)=NC2	226 to 227 °C
CN1CCN(c2cc3nc(C(C)(C)C)sc3cc2[N+](=O)[O-])CC1	132 to 135 °C
CCOC(=O)C12CC1CN(S(=O)(=O)c1ccc(C)cc1)C2c1ccccc1 (stereo not drawn)	123 to 124 °C
COc1ccccc1N1CCN(CCCO)CC1	88 to 89 °C
CC(=O)Nc1cccc(-c2ccnc3c(C(=O)c4ccco4)cnn23)c1	195 to 196 °C
